Assay results taken from patent US5075289A, “9-R-azacyclic erythromycin antibiotics” (priority 1988, dated 1991).
Converted amounts (≈) assume the structure as drawn. Where two headings read alike, the source gives them in different places.

Legend:
Assay type in all cases: cell-based
[1] = test system: Staphylococcus aureus 45 RAR 2; assay: microbe, parasite or virus in culture; details: 45RAR2
Protocol: (§1) The antimicrobial spectra of a number of compounds of the invention were tested by the following method:
(§2) Twelve petri dishes containing successive aqueous dilutions of the test compound mixed with 10 ml of sterilized Brain Heart Infusion agar (Difco 0418-01-5) are prepared. Each plate is inoculated with 1:100 (or 1:10 for slow growing strains, primarily Micrococcus and Streptococcus) dilutions of up to 32 different microorganisms, using a Steers replicator block The inoculated plates are incubated at 35°-37° C. for 20-24 hours. In addition, a control plate, using BHI agar containing no test compound, is prepared and incubated at the beginning and end of each test.
(§3) An additional plate containing a compound having known susceptibility patterns for the organisms being tested and belonging to the same antibiotic class as the test compound is also prepared and incubated as a further control, as well as to provide test-to-test comparability. Erythromycin A was used for this purpose.
(§4) After incubation, each disk is read. The MIC is defined as the lowest concentration of drug yielding no growth, a slight haze, or sparsely isolated colonies on the inoculum spot as compared to the growth control.

[2] = test system: Micrococcus luteus ATCC 4698; assay: In vitro antibacterial activity, agar dilution MIC
Protocol: as §1, §2, §3, §4

[3] = test system: Micrococcus luteus ATCC 9341; assay: In vitro antibacterial activity, agar dilution MIC
Protocol: as §1, §2, §3, §4

[4] = test system: Staphylococcus aureus ATCC 6538P; assay: In vitro antibacterial activity, agar dilution MIC; details: ATCC6538P, S. aureus ATCC 6538P, Brain Heart Infusion agar, 35-37° C., 20-24 hours, read-out: MIC
Protocol: as §1, §2, §3, §4

[5] = test system: Streptococcus pyogenes EES61; assay: In vitro antibacterial activity, agar dilution MIC; details: S. pyogenes EES61, Brain Heart Infusion agar, 20-24 hours, read-out: MIC
Protocol: as §1, §2, §3, §4

[6] = test system: Staphylococcus aureus A5177; assay: In vitro antibacterial activity, agar dilution MIC; details: S. aureus A5177, Brain Heart Infusion agar, 20-24 hours, read-out: MIC
Protocol: as §1, §2, §3, §4

Staphylococcus aureus 45 = assay: In vitro antibacterial activity, agar dilution MIC
Protocol: as §1, §2, §3, §4

Escherichia coli H560 = assay: In vitro antibacterial activity, agar dilution MIC; details: E. coli H560, Brain Heart Infusion agar, 20-24 hours, read-out: MIC
Protocol: as §1, §2, §3, §4

[7] = test system: Streptococcus pyogenes 930 CONST; assay: In vitro antibacterial activity, agar dilution MIC; details: 930CONST
Protocol: as §1, §2, §3, §4

[8] = test system: Streptococcus agalactiae CMX 508; assay: In vitro antibacterial activity, agar dilution MIC
Protocol: as §1, §2, §3, §4

[9] = test system: Staphylococcus aureus CMX 553; assay: In vitro antibacterial activity, agar dilution MIC
Protocol: as §1, §2, §3, §4

[10] = test system: Streptococcus bovis A5169; assay: In vitro antibacterial activity, agar dilution MIC; details: S. bovis A5169; Brain Heart Infusion agar, 20-24 hours; read-out: MIC
Protocol: as §1, §2, §3, §4

[11] = test system: Staphylococcus aureus CMX 503A; assay: In vitro antibacterial activity, agar dilution MIC; details: CMX503A
Protocol: as §1, §2, §3, §4

Escherichia coli SS = assay: In vitro antibacterial activity, agar dilution MIC; details: read-out: MIC
Protocol: as §1, §2, §3, §4

Escherichia coli Juhl = assay: In vitro antibacterial activity, agar dilution MIC
Protocol: as §1, §2, §3, §4

[12] = test system: Staphylococcus epidermidis 3519; assay: In vitro antibacterial activity, agar dilution MIC; details: S. epidermidis 3519, Brain Heart Infusion agar, 20-24 hours, read-out: MIC
Protocol: as §1, §2, §3, §4

[13] = test system: Streptococcus pyogenes 2548 INDUC; assay: In vitro antibacterial activity, agar dilution MIC; details: S. pyogenes 2548 INDUC, Brain Heart Infusion agar, 20-24 hours, read-out: MIC
Protocol: as §1, §2, §3, §4

[14] = test system: Staphylococcus aureus CMX 686B; assay: In vitro antibacterial activity, agar dilution MIC; details: CMX686B
Protocol: as §1, §2, §3, §4

[15] = test system: Enterococcus faecium ATCC 8043; assay: In vitro antibacterial activity, agar dilution MIC
Protocol: as §1, §2, §3, §4

Escherichia coli DC-2 = assay: In vitro antibacterial activity, agar dilution MIC
Protocol: as §1, §2, §3, §4

[16] = test system: Staphylococcus aureus NCTC 10649; assay: In vitro antibacterial activity, agar dilution MIC; details: NCTC10649, S. aureus NCTC 10649, Brain Heart Infusion agar, 20-24 hours, read-out: MIC
Protocol: as §1, §2, §3, §4

[17] = test system: Staphylococcus aureus 642A; assay: In vitro antibacterial activity, agar dilution MIC; details: S. aureus 642A, Brain Heart Infusion agar, 20-24 hours, read-out: MIC
Protocol: as §1, §2, §3, §4

[18] = ATCC4698, M. luteus ATCC 4698, Brain Heart Infusion agar, 20-24 hours, read-out: MIC
[19] = ATCC9341, M. luteus ATCC 9341, Brain Heart Infusion agar, 20-24 hours, read-out: MIC
[20] = S. aureus 45, Brain Heart Infusion agar, 20-24 hours, read-out: MIC
[21] = CMX508, S. agalactiae CMX 508, Brain Heart Infusion agar, 20-24 hours, read-out: MIC
[22] = E. coli SS, Brain Heart Infusion agar, 20-24 hours
[23] = E. coli Juhl, Brain Heart Infusion agar, 20-24 hours, read-out: MIC
[24] = ATCC8043, E. faecium ATCC 8043, Brain Heart Infusion agar, 20-24 hours, read-out: MIC
[25] = DC2, E. coli DC-2, Brain Heart Infusion agar, 20-24 hours, read-out: MIC
[26] = CMX553, S. aureus CMX 553, Brain Heart Infusion agar, 20-24 hours, read-out: MIC

Row | SMILES | MIC [1] | MIC [2, 18] | MIC [3, 19] | MIC [4] | MIC [5] | MIC [6] | MIC (Staphylococcus aureus 45; [20]) | MIC (Escherichia coli H560) | MIC [7] | MIC [8, 21] | MIC [10] | MIC (Escherichia coli SS; [22]) | MIC (Escherichia coli Juhl; [23]) | MIC [12] | MIC [13] | MIC [15, 24] | MIC (Escherichia coli DC-2; [25]) | MIC [9, 26] | MIC [16] | MIC [17] | other results
1 | CC[C@H]1OC(=O)[C@H](C)[C@@H](O[C@H]2C[C@@](C)(OC)[C@@H](O)[C@H](C)O2)[C@H](C)[C@@H](O[C@@H]2O[C@H](C)C[C@H](N(C)C)[C@H]2O)[C@](C)(O)C[C@@H](C)[C@@H](N2CCNCC2)[C@H](C)[C@@H](O)[C@]1(C)O [Example 15] | 12.5 µg/mL (≈ 15.5 µM) | 12.5 µg/mL (≈ 15.5 µM) | 3.1 µg/mL (≈ 3.86 µM) | 3.1 µg/mL (≈ 3.86 µM) | 1.56 µg/mL (≈ 1.94 µM) | > 100 µg/mL | 12.5 µg/mL (≈ 15.5 µM) | 100 µg/mL (≈ 124 µM) | > 100 µg/mL | 1.56 µg/mL (≈ 1.94 µM) | 1.56 µg/mL (≈ 1.94 µM) | 1.56 µg/mL (≈ 1.94 µM) | > 100 µg/mL | 6.2 µg/mL (≈ 7.71 µM) | 100 µg/mL (≈ 124 µM) | 12.5 µg/mL (≈ 15.5 µM) | > 100 µg/mL | – | – | – | MIC ([9]; CMX553): 6.2 µg/mL (≈ 7.71 µM); MIC [11]: 6.2 µg/mL (≈ 7.71 µM); MIC [14]: 6.2 µg/mL (≈ 7.71 µM)
2 | CC[C@H]1OC(=O)[C@H](C)[C@@H](O[C@H]2C[C@@](C)(OC)[C@@H](O)[C@H](C)O2)[C@H](C)[C@@H](O[C@@H]2O[C@H](C)C[C@H](N(C)C)[C@H]2O)[C@](C)(O)C[C@@H](C)[C@@H](N2CCN(C(=O)c3ccccc3)CC2)[C@H](C)[C@@H](O)[C@]1(C)O [Example 17] | 3.1 µg/mL (≈ 3.41 µM) | 0.78 µg/mL (≈ 0.859 µM) | – | 1.56 µg/mL (≈ 1.72 µM) | 0.39 µg/mL (≈ 0.429 µM) | 12.5 µg/mL (≈ 13.8 µM) | 0.78 µg/mL (≈ 0.859 µM) | > 100 µg/mL | > 100 µg/mL | – | 0.39 µg/mL (≈ 0.429 µM) | 3.1 µg/mL (≈ 3.41 µM) | > 100 µg/mL | 1.56 µg/mL (≈ 1.72 µM) | 25 µg/mL (≈ 27.5 µM) | 0.39 µg/mL (≈ 0.429 µM) | > 100 µg/mL | 1.56 µg/mL (≈ 1.72 µM) | 1.56 µg/mL (≈ 1.72 µM) | 1.56 µg/mL (≈ 1.72 µM) | MIC ([3]; ATCC9341, read-out: MIC): 0.2 µg/mL (≈ 0.22 µM); MIC ([8]; CMX508, read-out: MIC): 0.2 µg/mL (≈ 0.22 µM)
3 | CC[C@H]1OC(=O)[C@H](C)[C@@H](O[C@H]2C[C@@](C)(OC)[C@@H](O)[C@H](C)O2)[C@H](C)[C@@H](O[C@@H]2O[C@H](C)C[C@H](N(C)C)[C@H]2O)[C@](C)(O)C[C@@H](C)[C@@H](N2CCS(=O)(=O)CC2)[C@H](C)[C@@H](O)[C@]1(C)O [Example 22] | 6.2 µg/mL (≈ 7.27 µM) | 3.1 µg/mL (≈ 3.63 µM) | 0.39 µg/mL (≈ 0.457 µM) | 3.1 µg/mL (≈ 3.63 µM) | 0.39 µg/mL (≈ 0.457 µM) | > 100 µg/mL | 6.2 µg/mL (≈ 7.27 µM) | > 100 µg/mL | > 100 µg/mL | 0.39 µg/mL (≈ 0.457 µM) | 0.39 µg/mL (≈ 0.457 µM) | 1.56 µg/mL (≈ 1.83 µM) | > 100 µg/mL | 6.2 µg/mL (≈ 7.27 µM) | 100 µg/mL (≈ 117 µM) | 1.56 µg/mL (≈ 1.83 µM) | > 100 µg/mL | 3.1 µg/mL (≈ 3.63 µM) | 3.1 µg/mL (≈ 3.63 µM) | 6.2 µg/mL (≈ 7.27 µM) | –
4 | CC[C@H]1OC(=O)[C@H](C)[C@@H](O[C@H]2C[C@@](C)(OC)[C@@H](N)[C@H](C)O2)[C@H](C)[C@@H](O[C@@H]2O[C@H](C)C[C@H](N(C)C)[C@H]2O)[C@](C)(O)C[C@@H](C)[C@@H](N2CCOCC2)[C@H](C)[C@@H](O)[C@]1(C)O [Example 33] | 0.78 µg/mL (≈ 0.97 µM) | – | 0.05 µg/mL (≈ 0.0622 µM) | 0.78 µg/mL (≈ 0.97 µM) | 0.1 µg/mL (≈ 0.124 µM) | 6.2 µg/mL (≈ 7.71 µM) | – | 3.1 µg/mL (≈ 3.86 µM) | > 100 µg/mL | 0.1 µg/mL (≈ 0.124 µM) | 0.05 µg/mL (≈ 0.0622 µM) | – | – | 0.78 µg/mL (≈ 0.97 µM) | 50 µg/mL (≈ 62.2 µM) | – | – | 0.78 µg/mL (≈ 0.97 µM) | 0.78 µg/mL (≈ 0.97 µM) | 0.78 µg/mL (≈ 0.97 µM) | MIC ([2]; ATCC4698): 0.39 µg/mL (≈ 0.485 µM); MIC (Staphylococcus aureus 45; 45): 0.39 µg/mL (≈ 0.485 µM); MIC (Escherichia coli SS): 0.2 µg/mL (≈ 0.249 µM); MIC (Escherichia coli Juhl): 12.5 µg/mL (≈ 15.5 µM); MIC ([15]; ATCC8043, read-out: MIC): 0.2 µg/mL (≈ 0.249 µM); MIC (Escherichia coli DC-2; DC2): 6.2 µg/mL (≈ 7.71 µM)
